Results from patent publication US10196668B2, “Reagents and methods for screening MPS I, II, IIIA, IIIB, IVA, VI, and VII” (University of Washington through its Center for …, priority 2013, dated 2019).
Structures can show the parent of a compound that is named as a salt.

Key:
[1] = system: N-acetylgalactosamine-6-sulfatase (GALNS); experiment: GALNS (MPS-IVA) assay with beta-NGA and Z-PUG-NAc, UHPLC-MS/MS; format: biochemical, human
Experimental: (§1) Experiment 1. A 3 mm punch of a dried blood spot from a random newborn is incubated with 0.03 mL of assay cocktail consisting of 1 mM GALNS substrate in 50 mM ammonium formate pH 4.0 containing 7.5 mM barium acetate, 5.0 mM cerium acetate, 1 mM Z-PUG-NAc, and 0.01 mg of bacterial beta-N-acetylgalactosaminidase. The mixture also contains 0.005 mM internal standard. After 16 hrs at 37° C. with shaking, the mixture is quenched with 0.12 mL of acetonitrile and the sample plate is centrifuged to pellet the precipitate. Supernatant (0.12 mL) is transferred to a new plate, and 0.12 mL of water is added. The plate is placed on the autosampler of the UHPLC-MS/MS instrument (Waters Xevo TQ MS/MS with a Waters Acquity UHPLC system). A portion of the sample (0.01 mL) is injected, and the GALNS product (substrate minus sulfate), the internal standard, and the aglycones derived from the GALNS product and internal standard are quantified by multiple reaction monitoring (MS/MS). Note the internal standard added, like the GALNS product, is converted to its aglycone by the addition of bacterial beta-N-acetylgalactosaminidase.
(§2) Experiment 2. Experiment 2 is the same as Experiment 1 but uses a punch of filter paper (no blood). Most of the internal standard is converted to the aglycone showing that the added beta-NGA is working. The amount of aglycone is only 42,000, about 10-fold lower than that seen in the presence of blood. […] Furthermore when a dried blood spot from a confirmed Morquio A patient is used, the amount of aglycone is similar to that seen in the absence of blood (45,000) showing that the assay is working to detect only the GALNS present in blood from a non-affected individual.
(§3) Experiment 3. […] As expected, most of the internal standard is not converted to its aglycone, because is no beta-NAG and any hexosaminidase A coming from the blood is blocked by Z-PUG-NAc. The amount of GALNS product is 121,000 and the amount of aglycone is 42,900.
(§4) Experiment 4. Experiment 4 is the same as Experiment 3, but without blood. […] Thus, most of the 121,000 product counts in Experiment 3 is due to GALNS. The product counts in Experiment 3 cannot be due to hexosaminidase A, because only beta-NGA generates the aglycone. The amount of aglycone in Experiments 3 and 4 are similar, and this represents aglycone present in the GALNS substrate as a contaminant.
(§5) Experiment 5. […] Most of the internal standard is converted to its aglycone as expected because beta-NGA is present. The signal for aglycone is 1,350,000, much larger than in Experiment 1.
(§6) Experiment 6. Experiment 6 contains blood but no beta-NGA and no Z-PUG-NAc. The amount of GALNS product is 110,000 instead of 25,100 as in Experiment 5, which is due to the action of GALNS on the GALNS substrate. Because beta-NGA is absent, only a small amount of GALNS product is converted to aglycone, but the amount of aglycone remains high at 1,110,000. This is because of the action of hexosaminidase A in the blood on GALNS substrate in the absence of Z-PUG-NAc.
(§7) Experiments 7 and 8. Experiments 7 and 8 are with filter paper (no blood). […] As expected, most of the internal standard is converted to aglycone in Experiment 7, but not in Experiment 8. […] These can be removed by a further round of purification of GALNS substrate.

[2] = biological target: T1, N-acetylgalactosamine-6-sulfatase (GALNS) (Homo sapiens, UniProt P34059); experiment: as above; format: biochemical
T1 construct: Representative assays use dried blood spots on newborn screening cards as a source of GALNS; from tissue; host or cells: dried blood spot from a random newborn (3 mm punch)
T1 sequence (P34059 27-522): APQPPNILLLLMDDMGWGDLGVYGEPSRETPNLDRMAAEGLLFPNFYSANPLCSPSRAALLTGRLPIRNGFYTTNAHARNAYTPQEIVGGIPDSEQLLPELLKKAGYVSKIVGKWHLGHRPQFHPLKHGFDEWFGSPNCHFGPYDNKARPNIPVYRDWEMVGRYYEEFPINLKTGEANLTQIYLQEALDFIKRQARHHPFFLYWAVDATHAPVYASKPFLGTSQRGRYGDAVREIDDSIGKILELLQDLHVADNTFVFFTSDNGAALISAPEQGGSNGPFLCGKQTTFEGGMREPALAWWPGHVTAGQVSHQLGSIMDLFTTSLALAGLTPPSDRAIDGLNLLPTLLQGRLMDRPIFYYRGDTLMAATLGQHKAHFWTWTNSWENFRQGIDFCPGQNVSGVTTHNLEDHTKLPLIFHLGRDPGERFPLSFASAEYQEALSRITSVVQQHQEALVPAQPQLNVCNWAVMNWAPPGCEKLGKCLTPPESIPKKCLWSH
Experimental: as §1, §2, §3, §4, §5, §6, §7

[3] = biological target: T2, alpha-L-iduronidase (MPS-I enzyme) (Homo sapiens, UniProt P35475); experiment: MPS-I enzyme assay with dried blood spot punch, LC/MSMS; format: biochemical
T2 construct: from tissue; host or cells: dried blood spot (3 mm punch)
T2 sequence (P35475 28-653): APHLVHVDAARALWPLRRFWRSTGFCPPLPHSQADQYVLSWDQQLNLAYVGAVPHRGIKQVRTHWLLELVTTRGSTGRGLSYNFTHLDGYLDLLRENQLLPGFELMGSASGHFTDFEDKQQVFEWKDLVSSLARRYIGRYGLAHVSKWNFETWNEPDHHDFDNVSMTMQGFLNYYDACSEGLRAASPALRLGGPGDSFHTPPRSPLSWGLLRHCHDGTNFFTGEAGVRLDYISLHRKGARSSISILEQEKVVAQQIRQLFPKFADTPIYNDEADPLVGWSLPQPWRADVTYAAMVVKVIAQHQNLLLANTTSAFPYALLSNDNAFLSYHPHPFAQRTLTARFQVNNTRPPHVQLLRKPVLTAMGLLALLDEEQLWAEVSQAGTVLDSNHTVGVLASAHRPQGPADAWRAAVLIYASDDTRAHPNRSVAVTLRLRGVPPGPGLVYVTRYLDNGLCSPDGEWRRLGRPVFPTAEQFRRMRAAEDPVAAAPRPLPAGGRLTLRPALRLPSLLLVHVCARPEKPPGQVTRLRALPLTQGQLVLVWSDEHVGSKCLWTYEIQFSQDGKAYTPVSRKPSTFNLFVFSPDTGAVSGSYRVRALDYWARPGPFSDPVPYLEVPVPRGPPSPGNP
Experimental: The original and alternative MPS-I substrates were compared in side-by-side enzyme assays as follows: 0.5 mM substrate, 3.5 uM internal standard in 30 uL of buffer (100 mM ammonium formate, pH 4.0). A 3 mm punch of a dried blood spot was added, and the mixtures were incubated with shaking for 16 hours at 37 deg C. The reactions were quenched by addition 120 uL of acetonitrile. The wells were centrifuged, and 120 uL of supernatant was transferred to a new well. The sample was diluted by addition of 120 uL of water, and 10 uL was injected onto the LC/MSMS system. The LC and MS/MS conditions are as published (Spacil, Z., Tatipaka, H., Barcenas, M., Scott, C. R., Turecek, F., Gelb, M. H. (2012) “High-Throughput Assay of 9 Lysosomal Enzymes for Newborn Screening.” Clinical Chemistry., 59 (3), […]). A blank assay is also carried out in which a blood-free 3 mm punch of filter paper is substituted for the dried blood spot. The blank is incubated and processed as above.

[4] = Expt. 2: 3 mm filter paper punch (no blood), 1 mM Z-PUG-NAc, 0.01 mg of bacterial enzyme
[5] = Expt. 3: 3 mm dried blood spot punch, 1 mM Z-PUG-NAc, no beta-NGA
[6] = Expt. 4: 3 mm filter paper punch (no blood), 1 mM Z-PUG-NAc, no beta-NGA
[7] = Expt. 5: 3 mm dried blood spot punch, 0.01 mg beta-NGA, no Z-PUG-NAc
[8] = Expt. 6: 3 mm dried blood spot punch, Nothing added (no beta-NGA, no Z-PUG-NAc)
[9] = Expt. 7: 3 mm filter paper punch (no blood), 0.01 mg beta-NGA, no Z-PUG-NAc
[10] = Expt. 8: 3 mm filter paper punch (no blood), Nothing added
[11] = Expt. 1: 3 mm dried blood spot punch, 1 mM Z-PUG-NAc, 0.01 mg beta-NGA

Compound: CCCCC(=O)N(CCCCCNC(=O)c1ccccc1)CCC(=O)Nc1ccc(OC2OC(COS(=O)(=O)O)C(O)C(O)C2NC(C)=O)cc1 [GALNS substrate, Sodium ((2R,3R,4R,5R,6S)-5-acetamido-6(4(3(N (5-benzamidopentyl)-pentanamido)propanamido)phenoxy)-3,4-dihydroxytetrahydro-2H-pyran-2-yl)methyl sulfate]
- GALNS product (substrate without sulfate) peak area [1, 4]: 422
- aglycone peak area (product without sugar) [1, 4]: 42,000
- aglycone peak area (product without sugar) [1, 5]: 42,900
- GALNS product (substrate without sulfate) peak area [1, 6]: 753
- aglycone peak area (product without sugar) [1, 6]: 22,700
- aglycone peak area (product without sugar) [1, 7]: 1,350,000
- aglycone peak area (product without sugar) [1, 8]: 1,110,000
- GALNS product (substrate without sulfate) peak area [1, 9]: 253
- aglycone peak area (product without sugar) [1, 9]: 19,800
- GALNS product (substrate without sulfate) peak area [1, 10]: 820
- aglycone peak area (product without sugar) [1, 10]: 14,500
- amount of aglycone (peak area) ([1]; dried blood spot from a confirmed Morquio A patient, 1 mM Z-PUG-NAc, 0.01 mg beta-NGA): 45,000
- GALNS product (substrate without sulfate) peak area [2, 11]: 46,100
- aglycone peak area (product without sugar) [2, 11]: 411,000
- GALNS product (substrate without sulfate) peak area [2, 5]: 121,000
- GALNS product (substrate without sulfate) peak area [2, 7]: 25,100
- GALNS product (substrate without sulfate) peak area [2, 8]: 110,000

Compound: [2H]c1c([2H])c([2H])c(C(=O)NCCCCCN(CCC(=O)Nc2ccc(OC3OC(CO)C(O)C(O)C3NC(C)=O)cc2)C(=O)CCCC)c([2H])c1[2H] (centres unmarked) [GALNS internal standard]
- GALNS internal standard peak area [1, 11]: 278
- internal standard aglycone peak area [1, 11]: 54,400
- GALNS internal standard peak area [1, 4]: 3,290
- internal standard aglycone peak area [1, 4]: 15,900
- GALNS internal standard peak area [1, 5]: 23,500
- internal standard aglycone peak area [1, 5]: 940
- GALNS internal standard peak area [1, 6]: 14,700
- internal standard aglycone peak area [1, 6]: 412
- GALNS internal standard peak area [1, 7]: 852
- internal standard aglycone peak area [1, 7]: 49,200
- GALNS internal standard peak area [1, 8]: 17,900
- internal standard aglycone peak area [1, 8]: 17,100
- GALNS internal standard peak area [1, 9]: 1,920
- internal standard aglycone peak area [1, 9]: 22,200
- GALNS internal standard peak area [1, 10]: 12,100
- internal standard aglycone peak area [1, 10]: 648

Compound: CC(=O)N(CCCCCCNC(=O)c1ccccc1)CCC(=O)Nc1ccc(OC2OC(C(=O)O)C(O)C(O)C2O)cc1 (centres unmarked) [Alternative MPS-I]
- Enzymatic Activity ([3]; 0.5 mM substrate, 3 mm dried blood spot punch, pH 4.0, 16 hours at 37 deg C): 2.5 umole/hr/L blood
- blood-no blood assay ratio ([3]; activity with dried blood spot punch to that with blood-free punch): 34
